In patent publication US20050014144A1, “Methods” (priority 2001, published 2005):

Test system: P. aphanidermatum cytochrome b gene F129 and L129 alleles
Experiment: ARMS/Scorpion F129L SNP detection assay (Ct of allele selective primers on plasmid DNA templates)
Design: species or system Pythium aphanidermatum
Conditions: for ΔCt: between C and A plasmid template; for ΔCt / A Ct / C Ct: 2×10^6 molecules/ul; for A Ct: mutant (L129) plasmid template; for NTC amplification: no template (water only) control; for C Ct: wild type (F129) plasmid template; for Observed A:C ratio: plasmid templates 2×10^6 molecules/ul
Method: In all ARMS/Scorpion™ F129L SNP detection assays AmpliTaq Gold enzyme (Applied Biosystems) was included in the reaction mixes at 1 unit/25 μl reaction. The reaction mix also contained 1× buffer (10 mM Tris-HCl (pH8.3), 50 mM KCl, 3.5 mM MgCl2, 0.01% gelatine) and 100 μM dNTPs (Amersham Pharmacia Biotech). Amplifications were performed in an ABI Prism 7700 instrument for continuous fluorescence monitoring. A preliminary cycle of 95° C. for 10 minutes was performed followed by 50 cycles of 95° C. for 15 sec and 60° C. for 45 sec. Fluorescence was monitored during the annealing/extension stage throughout all cycles.
Primers were first validated for use in such analyses by using plasmid DNA, at various concentrations, as template. This was performed in order to check the specificity and sensitivity of the primer designs. Partial wild type cytochrome b gene sequence and the corresponding tract containing the F129L mutation amplified from two P. aphanidermatum isolates were cloned into the TA pCR2.1 vector (Invitrogen) as described previously in example 2. 150 ul of the bacterial culture, from the 10 transformants from each cloning event picked for Wizard Plus plasmid DNA Preparations (Promega) (see example 2), was saved prior to carrying out these preparations and stored at 4° C. Following sequence analysis wild type and mutant plasmid DNA samples that contained no sequence differences from the consensus sequence were noted. The bacterial culture from which these wild type and mutant plasmid DNA sequences originated was picked for plasmid DNA maxipreps (Qiagen) following the manufacturers protocol. The resulting plasmid DNA was quantified and diluted to a concentration of 1 ug/ul (2×10^11 molecules/ul) using sterile double distilled H2O.
The wild type and mutant plasmid DNA cassettes were diluted further to a concentration of 10 pg/ul (or 2×10^6 molecules/ul) in double distilled H2O and used as template to validate the specificity of the ARMS primers. Each ARMS primer was tested on wild type and mutant template as well as a no template (water only) control, under the PCR conditions described above. The Pt129-1 and Pt129-4 primers were preferred to the Pt129-2 and Pt129-3 and the Pt129-5 and Pt129-6 primers as duplicate PCRs gave more consistent results and were more specific. Wild type ARMS primer Pt129-1 gave a window of 15.27 cycles before amplification occurred on the inappropriate (mutant) template (FIG. 7). Mutant ARMS primer Pt129-4 gave a window of 16.96 cycles before amplification occurred on the inappropriate (wild type) template (FIG. 8).
Following the selection of a suitable ARMS primer for the detection of the point mutation the assay was validated further, so that its sensitivity of detection was fully understood before it was used to test biological samples for the presence of the L129 mutation. The first validation step was to establish if the window of specificity varied for the chosen ARMS primers over a 6 orders of magnitude range of wild type and mutant template DNA concentration. The wild type and mutant plasmid DNA cassettes described previously were diluted in Bovine Serum Albumin (BSA) (Fraction V Powder minimum 96%, Sigma A9647) at a concentration of 1 mg/ml through a 10 fold dilution series. The template concentrations covered the range 2×10^8 molecules/ul to 2×10^2 molecules/ul. Both plasmid DNA cassettes and a no template (water only) control were tested in the ARMS/Scorpion assay using primers Pt129-1, Pt129-4 and Pt129-S, as described above.
In all ARMS/Scorpion™ F129L SNP detection assays AmpliTaq Gold enzyme (Perkin-Elmer/ABI) was included in the reaction mixes at 1 unit/25 μl reaction. The reaction mix also contained 1× buffer (10 mM Tris-HCl (pH8.3), 50 mM KCl, 3.5 mM MgCl2, 0.01% gelatine) and 100 μM dNTPs (Amersham Pharmacia Biotech). Amplifications were performed in an ABI Prism 7700 instrument for continuous fluorescence monitoring. […]

Substance | ΔCt | A Ct | NTC amplification | C Ct | Observed A:C ratio
Pt129-A1 (DNA ACCCCAAGGTAATACATAACCCAAT; chemistry not given here) | 5.79 | 26.54 | none | 32.33 | –
Pt129-A2 (DNA ACCCCAAGGTAATACATAACCCACT; chemistry not given here) | 13.14 | 20.87 | none | 34.01 | –
Pt129-A3 (DNA ACCCCAAGGTAATACATAACCCAGT; chemistry not given here) | 8.91 | 31.29 | none | 40.2 | –
Pt129-A4 (DNA ACCCCAAGGTAATACATAACCCTTT; chemistry not given here) | 14.38 | 24.42 | none | 38.8 | –
Pt129-A5 (DNA ACCCCAAGGTAATACATAACCCCTT; chemistry not given here) | 11.09 | 21.42 | none | 32.51 | –
Pt129-A6 (DNA ACCCCAAGGTAATACATAACCCGTT; chemistry not given here) | 12.17 | 21.3 | none | 33.47 | –
Pt129-A7 (DNA ACCCCAAGGTAATACATAACTCACT; chemistry not given here) | 14.05 | 36.33 | none | 22.28 | –
Pt129-A8 (DNA ACCCCAAGGTAATACATAACACACT; chemistry not given here) | 13.76 | 35.87 | none | 22.11 | –
Pt129-A9 (DNA ACCCCAAGGTAATACATAACGCACT; chemistry not given here) | 14.96 | 37.1 | none | 22.14 | –
Pt129-A10 (DNA ACCCCAAGGTAATACATAACTCCTT; chemistry not given here) | 4.2 | 31.4 | none | 27.2 | –
Pt129-A11 (DNA ACCCCAAGGTAATACATAACACCTT; chemistry not given here) | 6.4 | 31.25 | none | 24.85 | –
Pt129-A12 (DNA ACCCCAAGGTAATACATAACGCCTT; chemistry not given here) | 2.7 | 30.16 | none | 27.46 | –
Pt129-A13 (DNA ACCCCAAGGTAATACATAACTCGTT; chemistry not given here) | 18.8 | 41.99 | none | 23.19 | –
Pt129-A15 (DNA ACCCCAAGGTAATACATAACGCGTT; chemistry not given here) | – | no C | none | 30.05 | all A
Pt129-C1 (DNA ACCCCAAGGTAATACATAACCCAAG; chemistry not given here) | 16.81 | 42.6 | none | 25.79 | –
Pt129-C2 (DNA ACCCCAAGGTAATACATAACCCACG; chemistry not given here) | 23.15 | 43.57 | none | 20.42 | –
Pt129-C3 (DNA ACCCCAAGGTAATACATAACCCAGG; chemistry not given here) | – | no A | none | 29.7 | all C
Pt129-C5 (DNA ACCCCAAGGTAATACATAACCCCTG; chemistry not given here) | 22.26 | 42.36 | none | 20.1 | –
Pt129-C6 (DNA ACCCCAAGGTAATACATAACCCGTG; chemistry not given here) | 24.54 | 44.17 | none | 19.63 | –
Pt129-S6 (DNA TTGACCCCAAGGTAATACATAACTC; chemistry not given here) | – | 20.84 | none | 20.43 | –
